“And” between values parts separate entries of the source, which are not always exact repeats. Equal entries are not always repeated. Where two headings read alike, the source gives them in different places.
Legend:
β-hematin formation = assay: Cell-free β-hematin inhibition assay (NP-40 detergent-based); format: biochemical; conditions: 2 independent experiments, read-out: βH IC50 ± SD
P. falciparum NF54 = assay: In vitro asexual blood stage antiplasmodium activity (pLDH assay), drug sensitive NF54 strain; conditions: mean ± SD, n ≥ 2 independent experiments
P. falciparum Dd2 = assay: In vitro asexual blood stage antiplasmodium activity (pLDH assay), multidrug-resistant Dd2 strain; conditions: Plasmodium falciparum, DD2, read-out: Pf IC50 ± SD Dd2, asexual blood stage; mean ± SD, n ≥ 2 independent experiments
P. falciparum K1 = assay: In vitro asexual blood stage antiplasmodium activity (pLDH assay), multidrug-resistant K1 strain; conditions: mean ± SD, n ≥ 2 independent experiments
[1] = Solubility, miniaturised shake flask method, HPLC-DAD; format: physicochemical; conditions: aqueous solution, 25 °C, aqueous buffer, thermodynamic from solid; pH 6.5; footnote: thermodynamic solubility, title and text: kinetic
[2] = In vitro microsomal metabolic stability, human; format: in vitro ADME; conditions: both sexes, human liver microsomes, pH 7.4, read-out: CLint,app (h)
[3] = In vitro cytotoxicity, MTT assay; conditions: Chinese hamster, Chinese Hamster Ovarian (CHO) cells
[4] = system: Chinese Hamster Ovarian (CHO) cells; assay: In vitro cytotoxicity, MTT assay; conditions: CHO IC50/PfNF54 IC50
[5] = In vitro microsomal metabolic stability, rat; format: in vitro ADME; conditions: male, Sprague Dawley, rat liver microsomes, pH 7.4, read-out: CLint,app (r)
[6] = In vitro microsomal metabolic stability, mouse; format: in vitro ADME; conditions: male, CD1, mouse, mouse liver microsomes, pH 7.4; read-out: CLint,app (m)
[7] = system: heme species (free heme, hemozoin) in NF54 parasites; assay: Cellular heme fractionation assay; format: cell-based, Plasmodium falciparum; conditions: 0.5× to 3× IC50, NF54 parasites
[8] = Plasmodium falciparum, NF54, read-out: Pf IC50 ± SD NF54, asexual blood stage
[9] = Plasmodium falciparum, K1, read-out: Pf IC50 ± SD K1, asexual blood stage
[10] = read-out: Pf IC50 ± SD K1, asexual blood stage

IC50 (β-hematin formation) | IC50 (P. falciparum NF54; [8]) [nM] | IC50 (P. falciparum Dd2) [nM] | IC50 (P. falciparum K1; [9]) [nM] | Structure (SMILES) | further results
18 ± 7 µM | 590 ± 350 | 2360 ± 400 |  | Cc1cnc(N)c(/C=C/c2cscc2C(=O)NCCc2ccc(Cl)cc2Cl)c1 [Compound 28] | 
< 10 µM and 5 µM | 90 |  | 460 ± 170 | Cc1cnc(N)c(/C=C/c2cncc(C(=O)NCc3cc(Cl)cc(Cl)c3)c2)c1 [Compound 21] | 
26 ± 7 µM | 1180 ± 380 |  |  | Cc1cncc(/C=C/c2cncc(C(=O)NCCc3ccc(Cl)cc3Cl)c2)c1 [Compound 6] | 
 | 140 | 920 ± 50 |  | Nc1ccncc1/C=C/c1cncc(C(=O)NCCc2ccc(Cl)cc2Cl)c1 [Compound 12] | 
232 ± 27 µM | > 6000 |  |  | Cc1cnc(N)c(/C=C/c2cncc(C(=O)NCCC3CCNCC3)c2)c1 [Compound 25] | 
18.4 ± 0.2 µM | 2600 ± 1470 |  |  | Cc1ccc(N)c(/C=C/c2cncc(C(=O)NCCc3ccc(Cl)cc3Cl)c2)c1 [Compound 5] | 
 | 510 ± 420 | 2210 ± 1160 |  | Nc1ccc(/C=C/c2cncc(C(=O)NCCc3ccc(Cl)cc3Cl)c2)cn1 [Compound 8] | 
15 ± 2 µM |  |  | < 1000 | Cc1cnc(N)c(/C=C/c2cncc(C(=O)NCCc3ccc(Cl)cc3)c2)c1 [Compound 18] | IC50 (P. falciparum K1; [10]): 720 ± 430 nM
15.9 ± 0.1 µM | 2630 ± 2270 |  |  | O=C(NCCc1ccc(Cl)cc1Cl)c1cncc(/C=C/c2cccnc2)c1 [Compound 10] | 
 | 140 ± 20 | 190 |  | Cc1cnc(N)c(/C=C/c2cncc(C(=O)Nc3ccc(Cl)cc3)c2)c1 [Compound 23] | solubility thermodynamic at 20 h [1]: < 5 µM; CLint scaled at 1 µM [2]: 64 mL/min/kg; IC50 [3]: 21 µM; selectivity index [SI] [4]: 150; CLint scaled at 1 µM [5]: 62 mL/min/kg; CLint scaled at 1 µM [6]: 153 mL/min/kg
 | 480 ± 350 | 1400 ± 50 |  | Nc1ncncc1/C=C/c1cncc(C(=O)NCCc2ccc(Cl)cc2Cl)c1 [Compound 13] | 
 | 480 ± 260 |  | > 6000 | Nc1cncc(/C=C/c2cncc(C(=O)NCCc3ccc(Cl)cc3Cl)c2)c1 [Compound 9] | 
13 ± 4 µM | 620 ± 70 |  | 1650 ± 270 | Cc1cnc(N)c(/C=C/c2cccc(C(=O)NCCc3ccc(Cl)cc3Cl)c2)c1 [Compound 27] | 
17.9 ± 0.2 µM | 340 ± 240 | 5470 ± 540 | 960 ± 390 | Nc1ncccc1/C=C/c1cncc(C(=O)NCCc2ccc(Cl)cc2Cl)c1 [Compound 7] | 
< 10 µM and 8 µM | 200 ± 60 | 350 ± 50 |  | Cc1cnc(N)c(/C=C/c2cncc(C(=O)Nc3ccc(Cl)cc3Cl)c2)c1 [Compound 22] | 
 | 160 ± 70 | 190 ± 110 | 250 ± 120 | Cc1cnc(N)c(/C=C/c2cncc(C(=O)NCc3ccc(Cl)cc3Cl)c2)c1 [Compound 20] | 
13 ± 2 µM | 220 ± 30 |  | 590 ± 40 | Cc1cnc(N)c(/C=C/c2cncc(C(=O)NCCc3ccc(Cl)cc3Cl)c2)c1 [Compound 4] | free heme, dose response [7]: dose-dependent increase in free heme; hemozoin, dose response [7]: decrease in hemozoin
22 ± 2 µM | 4280 |  |  | O=C(NCCc1ccc(Cl)cc1Cl)c1cncc(/C=C/c2ccccc2)c1 [Compound 11] | IC50 (P. falciparum NF54; read-out: Pf IC50 ± SD NF54, asexual blood stage): 4820 ± 1550 nM
 | 320 ± 60 | < 1000 | < 1000 | Cc1cnc(N)c(/C=C/c2cncc(C(=O)NCCc3ccccc3)c2)c1 [Compound 19] | IC50 (P. falciparum K1; [10]): 580 ± 160 nM
62 ± 5 µM | 2060 ± 690 |  |  | Cc1cnc(N)c(/C=C/c2cncc(C(=O)NCCc3ccncc3)c2)c1 [Compound 24] | 
27 ± 7 µM | 780 ± 30 | 3190 ± 380 |  | Cc1cnc(N)c(/C=C/c2cccc(C(=O)NCCc3ccc(Cl)cc3Cl)n2)c1 [Compound 26] | 

From publication PMC12794062, “Repositioning a Human Kinase Platelet-Derived Growth Factor Receptor Alpha Type II Inhibitor for Malaria and Inhibition of Hemozoin Formation” (ACS Medicinal Chemistry Letters, 2025)
